Data reported in patent publication US20240197828A1, “Chimeric molecule to treat sepsis and other inflammatory conditions” (THE FEINSTEIN INSTITUTES FOR MEDICAL RESEARCH, priority 2022, published 2024).

How the values were obtained:
RAW264.7 macrophages = assay: Intracellular uptake of FITC-rmCIRP by macrophages (flow cytometry, confocal microscopy); format: cell-based, mouse; conditions: RAW264.7, FITC-rmCIRP 1 μg/mL co-incubated with test substance (peptide 10 μg/mL), 1 hour, vs FITC-rmCIRP alone
Description: FIG. 3. Effects of MOP peptides MOP-3, MOP-8 and MOP-14 on eCIRP. Flow cytometry experiment whereby RAW264.7 macrophages were treated for 1 hour according to respective group: PBS (volume-equivalent), FITC-rmCIRP (1 μg/mL), or a mixture of FITC-rmCIRP (1 μg/mL) with each respective peptide (10 μg/mL) after co-incubating for 30 minutes. Intracellular FITC-rmCIRP was analyzed by flow cytometry. Median fluorescence intensity (MFI) reported as percentage relative to PBS-treated RAW264.7 cells. Data from two independent experiments are expressed as mean±SEM and compared by one-way ANOVA and SNK test. *p<0.05 vs. PBS, #p<0.05 vs. eCIRP.
(§1) Computational modeling was used to determine the likely domain of MFG-E8's binding to eCIRP. The known amino acid (AA) sequence of this domain was used to develop and test potential therapeutic peptides. An MFG-E8 derived oligopeptide, MOP3, was developed based on 15 AA from MFG-E8 discoidin 2 domain (mimicking MFG-E8's C-terminal) and tagged with the 3 AA, RGD, (mimicking MFG-E8's binding capacity for the integrin receptor at the N-terminal). Binding of MOP3 to CIRP was quantified using Surface Plasmon Resonance (SPR) analysis. Macrophages (RAW264.7 cells) were treated with FITC-recombinant mouse (rm)-CIRP or co-incubated MOP3 and FITC-rmCIRP with and without a. Br-integrin Ab. After 1 h, cells were fixed and analyzed for intracellular FITC-rmCIRP by flow cytometry. Macrophages were stimulated with rmCIRP or co-incubated mixture of MOP3 and rmCIRP. After 4 h, cell culture supernatants were analyzed for inflammatory cytokine, TNFα.
Mouse macrophage cell line, RAW264.7 cells were obtained from American Type Culture Collection (ATCC) and cultured in DMEM media with 10% FBS, 1% penicillin and streptomycin, and 1% glutamine. Cells were kept in 37° C. incubator under humidified conditions containing 5% CO2.
rmCIRP was labeled using a FITC Conjugation Kit (Abcam, ab188285), and rmMFG-E8 was labeled using Alexa Fluor Conjugation Kit (Abcam, ab269821), both according to respective manufacturer's instructions.
In order to visualize cellular uptake, we initially utilized TRITC-BSA as an internal probe, as BSA is taken up into cells primarily by endocytosis and retained intracellularly after fixation (27, 28). For further visualization of intracellular localization, we utilized LAMP1 primary antibody (as it is distributed among endolysosomal organelles and serves as a marker for lysosomal compartments) (29), and utilized lysotracker in live cell experiments (as it allows for imaging of dynamics of lysosome vesicle movements) (30). RAW264.7 cells were treated in various conditions with rmCIRP, rmMFG-E8, and inhibitory antibody against auß3-integrin (Bioss antibodies, bs-1310R) for 4 hours. Cells were fixed with 4% paraformaldehyde (PFA), washed with 1×PBS, permeabilized using 0.3% Triton x100, and blocked using 5% BSA 100 mM Glycine in PBS prior to primary antibody treatment. After incubation with secondary antibodies, cells were washed and mounted with ProLong Gold antifade reagent (Invitrogen). For live cell imaging, cells remained in treatment conditions and were imaged under CO2. Staining procedures were performed according to the manufacturers' instructions utilizing respective fluorescent dyes and probes. For all imaging, confocal microscopy images were obtained using a Zeiss LSM880 confocal microscope equipped with a 63× objective. Images were quantified and analyzed using Image J, FIJI.(31) Flow cytometry.
To detect changes in internalized eCIRP in the presence of MFG-E8, RAW264.7 cells were seeded in 12-well plates (approximately 3×10^5 cells/well) and were treated with FITC-eCIRP. Treatment groups consisted of FITC-eCIRP, FITC-eCIRP with MFG-E8, FITC-eCIRP with MFG-E8 and αvβ3-integrin antibody (0.5 μg/mL), or FITC-eCIRP with MFG-E8 and IgG isotype (0.5 μg/mL). Similar experiments were conducted with MOP3 instead of MFG-E8 in parallel groups. […]

RAW264.7 cells = assay: eCIRP-induced cytokine release in RAW264.7 cells (ELISA of supernatants); format: cell-based, mouse; conditions: RAW264.7, rmCIRP 1 μg/mL, 4 hours, vs rmCIRP alone
Description: FIG. 2. Effects of MOP peptides on TNFα levels. RAW264.7 macrophages were cultured and treated with either volume-equivalent PBS, recombinant murine (rm) CIRP (eCIRP; 1 μg/mL), or rmCIRP with each respective peptide (10 μg/mL). After 4 hours, cell supernatants were assessed for TNFα levels by ELISA. Experiments were performed 3 times, and all data were used for analysis. Data are expressed as mean±SEM and compared by one-way ANOVA and SNK test. *p<0.05 vs. PBS, #p<0.05 vs. eCIRP.
FIG. 4. eCIRP-induced inflammation is attenuated by MOP3. RAW264.7 cells were treated according to respective groups: PBS (volume equivalent), rmCIRP (1 μg/mL), or rmCIRP with MOP3 at increasing doses. After 4 hours, cell supernatants were analyzed for TNFα levels by ELISA. Experiments were performed 3 times, and all data were used for analysis. Data are expressed as mean #SEM and compared by one-way ANOVA and SNK test. *p<0.05 vs. PBS, #p<0.05 vs. eCIRP.
as §1
Mouse macrophage cell line, RAW264.7 cells were obtained from American Type Culture Collection (ATCC) and cultured in DMEM media with 10% FBS, 1% penicillin and streptomycin, and 1% glutamine. Cells were kept in 37° C. incubator under humidified conditions containing 5% CO2. […]
The mouse macrophage cell culture supernatants were analyzed for cytokine levels using ELISA kits (BD Biosciences, CA). […] TNF-α and IL-6 levels were measured in cell supernatants by ELISA in accordance with respective manufacturers' instructions (BD Biosciences, CA). Blood was collected, centrifuged at 4,000 RPM for 10 minutes, and sera was separated and analyzed for cytokine levels using ELISA kits (BD Biosciences, CA). TNF-α and IL-6 levels in the serum were measured by ELISA in accordance with respective manufacturers' instructions.

Substance | intracellular FITC-rmCIRP uptake (flow cytometry) (RAW264.7 macrophages) | TNFα levels in cell supernatants (RAW264.7 cells)
MOP3-modification to “RGT”: modified peptide whereby the Arg-Gly-Asp AAs of MOP3 were edited to Arg-Gly-Thr (RGT) (RGTSSSYKTWNLRAFGWY) [reference compound] | loss of ability to internalize FITC-eCIRP | 
RGDPFMARYVRVLPVSWH (listed as Mus musculus) [MOP14, RGD-tagged segment of murine MFG-E8 discoidin domain 2] | only a single peptide screened, peptide-3, could increase intracellular uptake | capable of attenuating TNFα release
RGDVTGIITQGARDFGHI (listed as Mus musculus) [MOP8, RGD-tagged segment of murine MFG-E8 discoidin domain 2] | only a single peptide screened, peptide-3, could increase intracellular uptake | capable of attenuating TNFα release
